Test results as given in patent publication US20250129102A1, “CRYSTAL FORM OF PYRIMIDINE HETEROCYCLIC COMPOUND AND PREPARATION METHOD THEREFOR” (D3 Bio (Wuxi) Co., Ltd., priority 2021, published 2025).

Key:
Format in all cases: in vitro ADME
[1] = Metabolic stability in hepatocytes, beagle dogs; conditions: dog, cryopreserved hepatocytes
Protocol: Metabolic stabilities of assay compound in hepatocytes of CD-1 mice, SD rats, beagle dogs, cynomolgus monkeys, and human were assayed, respectively.
Several 96-well sample precipitation plates were prepared and named T0, T15, T30, T60, T90, T120, T0-MC, T120-MC and blank substrates, respectively. The recovery medium and incubation medium were taken out in advance and placed in a 37° C. water bath for pre-heating. Cryopreserved hepatocytes were removed from the liquid nitrogen tank and immediately immersed in a 37° C. water bath (approximately 90 seconds). After the cryopreserved hepatocytes had thawed and loosened, they were poured into a centrifuge tube containing 40 mL of recovery medium, and the tube was gently inverted to allow the cells to be resuspended in the recovery medium. The cells were centrifuged at 100×g at room temperature for 5 min, and the supernatant was removed. The hepatocytes were resuspended in an appropriate volume of incubation medium, and the cell viability was calculated by Trypan Blue staining method. 198 μL of hepatocyte suspension (0.51×10^6 cells/mL) was added to the preheated incubation plate. For the culture medium control group, 198 μL of hepatocyte-free incubation medium was added to T0-MC and T120-MC incubation plate. All incubation plates were pre-incubated in a 37° C. incubator for 10 minutes. Then 2 μL of working solutions of the assay sample and the control compound were added, respectively, and the mixture was mixed well. The incubation plate was immediately put into the shaker in the incubator, and the reaction was initiated while starting the timer. For each time point of each compound, 2 duplicate samples were prepared. The incubation conditions were 37° C., saturated humidity, and 5% CO2. […] All samples were mixed well and analyzed by LC/MS/MS.

[2] = Stability in whole blood, SD rats; conditions: 5 μM, 37° C.
Protocol: (§1) Stabilities of the assay compound in whole blood of CD-1 mice, SD rats, beagle dogs and cynomolgus monkeys were assayed, respectively. On the day of the assay or the day before the assay, fresh whole blood from CD-1 mice, SD rats, beagle dogs, and cynomolgus monkeys was collected using anticoagulant EDTA-K2. Prior to the start of the assay, the whole blood was mixed with PBS in 1:1 (v: v) and the mixture was preheated in a 37° C. water bath for 10 to 20 minutes. 96-well incubation plates were prepared and named T0, T30, T60, […], respectively. In the corresponding incubation plates, including T0, T30, T60 and […] incubation plates, 2 μL of working solutions of the compound or the control compound were mixed with 98 μL of blank whole blood of mice, rats, canines, monkeys and human in duplicate. All samples were incubated in a 37° C. water bath. The final incubation concentration of the compound was 5 μM and the final incubation concentration of the control compound was 2 μM. At the end of incubation for each time point, the corresponding incubation plate was removed and 100 μL of ultrapure water was immediately added to the corresponding sample wells, and mixed well. 800 μL of a solution of 200 ng/mL tolbutamide and labetalol in acetonitrile was added to precipitate the protein. […] 150 μL of supernatant was taken out and analyzed by LC/MS/MS.

[3] = Stability in whole blood, cynomolgus monkeys; conditions: 5 μM, 37° C.
Protocol: as §1

[4] = Stability in whole blood, beagle dogs; conditions: 5 μM, 37° C.
Protocol: as §1

[5] = Protein binding rate in plasma by equilibrium dialysis, cynomolgus monkeys; conditions: 2 μM, equilibrium dialysis 4 hours
Protocol: (§2) Protein binding rate of the assay compound in plasma of CD-1 mice, SD rats, beagle dogs, cynomolgus monkeys and human was determined by equilibrium dialysis. Plasma samples with a compound concentration of 2 μM were prepared using plasma of the above five species, placed in a 96-well equilibrium dialysis device, and dialyzed with phosphate buffer solution at 37±1° C. for 4 hours. Warfarin was used as the control compound in this assay. The concentrations of the assay compound in plasma and dialysis buffer were determined by LC-MS/MS method.

[6] = Protein binding rate in plasma by equilibrium dialysis, human; conditions: 2 μM, equilibrium dialysis 4 hours
Protocol: as §2

C=C(F)C(=O)N1CCN(c2nc(OC[C@@]34CCCN3C[C@H](F)C4)nc3c2CO[C@H](c2c(F)c(N)cc(C)c2C(F)(F)F)C3)C[C@@H]1CC#N [Compound of formula (I)]
half-life at 1 μM [1]: 182 min
hepatocyte CLint at 1 μM ([1]; read-out: CLint(hep)): 7.6 µL/min/1e6 cells
CLint scaled at 1 μM ([1]; read-out: CLint(liver)): 52.3 mL/min/kg
Detection of assay compound content within 240 min [2]: 115%
Detection of assay compound content within 240 min [3]: 77%
Detection of assay compound content within 240 min [4]: 102%
Protein unbound rate (%) [5]: 7.8%
Protein unbound rate (%) [6]: 4.8%
